The record followed here is patent US20150306110A1, “COMPOSITIONS AND METHODS FOR TREATMENT OF INFLAMMATION AND HYPERKERATOTIC LESIONS” (Novelix Pharmaceuticals, Inc., priority 2008, published 2015).

≈ marks a conversion by molar mass, not a printed value.

Common to all, as to type: cell-based
One test has as its system human keratinocytes. In words: Survival / anti-proliferative activity in keratinocytes. The note with it: for Mean survival, percentage of control-treated cells: n=3. The procedure: (§1) All cells were treated with 2.5 μM NVX-207. Percentage (means±S.E., n=3) of control-treated cells are given. […] Mean survival in NVX-207 treated fibroblasts at 80% confluency was 92% (S.E.=3.8) versus 3.8% mean survival (S.E.=0.4) at 30% confluency. […] HUVECs, keratinocytes and fibroblast cells were obtained from Lonza GmbH (Wuppertal, Germany) and cultivated according to the manufacturer's instructions.
(§2) Human umbilical vein endothelial cells (HUVEC), keratinocytes and fibroblast cells were obtained from Lonza GmbH (Wuppertal, Germany) and cultivated according to the manufacturer's instructions. […] The IC50 value of betulinic acid in human keratinocytes was recently determined to be ˜5.0 μg/ml (Tino Galgon al., Exp Dermatol. 14:736-43, 2005), while the IC50 of NVX-207 is ˜0.7 µg/ml. […] Mean survival in NVX-207 treated fibroblasts at 80% confluency was 92% (S.E.=3.8) versus 3.8% mean survival (S.E.=0.4) at 30% confluency. […] Under normal physiological conditions, the endothelium, as well as skin fibroblasts and skin keratinocytes, show relatively low turn-over and limited cell divisions to maintain tissue integrity.
(§3) Keratinocytes at high confluence (e.g., 80%) mimic normal physiological conditions in which these cells divide more slowly (fewer cell divisions per unit of time). In contrast, keratinocytes in psoriatic lesions divide more rapidly, as do keratinocytes cultured at lower confluency (e.g., 30%). Thus, the 30% confluency conditions were considered a model for psoriasis whereas the behavior of 80% confluent cells more closely reflects the conditions observed in normal skin.

In the next test the test system is GOTO (autonomic ganglia). The experiment in a line: Cell growth/survival, GOTO neuronal cancer cells. The note with it: Homo sapiens, TP53 neg.
The subject of test [1] is melanoma, liposarcoma, colon-and lung cancer cells. The experiment in a line: Cell growth in select cancer cell lines, NVX-207 compared to betulinic acid (FIGS. 1A-D). Conditions: various cancer and non-cancer cells, human and animal cell lines. The method, then: FIGS. 1A-D show cell survival in select human cancer cell lines: 518A2 melanoma (FIG. 1A), SW872 liposarcoma (FIG. 1B), Caco-2 colon carcinoma (FIG. 1C) and A549 lung carcinoma (FIG. 1D). Cell survival as a percentage of untreated controls (y-axis) in response to NVX-207 (grey lines) or betulinic acid (black lines) in μg/ml (x-axis) are shown.
Melanoma cell lines used in this study were maintained in Dulbecco's modified Eagle medium (DMEM with 4500 mg/l glucose) supplemented with 10% FCS from Gibco BRL (Life Technologies, Berlin, Germany). The canine mastocytoma cell line C2 (DeVinney et al, Am. J. Respir. Cell Mol. Biol. 3:413-20, 1990) was used in this study, along with additional human cell lines: RD-ES and TC-71 (human Ewing's sarcoma), SAOS2 (human osteosarcoma), HT-1080 (human fibrosarcoma), Caco-2 (human colon adenocarcinoma), A549 (human lung adenocarcinoma), Hep-G2 and Hep-3B (human hepatocellular carcinoma), SK-N-DZ and SK-N-FI (human embryonal neuroblastoma), HTB9 (human bladder cancer), MDA-468 and MCF-7 (human breast cancer) and SW872 liposarcoma. […]
Briefly, cells were maintained in standard medium, harvested, and plated at equal densities (750,000 cells in 5 cm tissue culture dishes). […] For the assessment of cell growth, the number of surviving cells was determined using an automated cell counter from Beckman Coulter GmbH (Krefeld, Germany). […]

In test [2] the test system is human umbilical vein endothelial cells (HUVEC). The experiment in a line: Survival of HUVEC at 80% and 30% confluency. The note with it: 2.5 μM; for Mean survival, percentage of control-treated cells: HUVEC, n=3. The procedure:
as §1, §2, §3

Regarding `C=C(C)[C@@H]1CC[C@]2(C(=O)OCC(N)(CO)CO)CC[C@]3(C)[C@H](CC[C@@H]4[C@@]5(C)CC[C@H](OC(C)=O)C(C)(C)[C@@H]5CC[C@]43C)[C@@H]12` [NVX-207, 3-O-acetylbetulinic acid-2-amino-3-hydroxy-2-hydroxymethylpropyl ester], the IC50 in the test on human keratinocytes (Homo sapiens, Keratinocyte) was roughly 0.7 µg/mL (≈ 1.16 µM); with GOTO (autonomic ganglia), 2 µM. In addition, the “IC50 lower compared to betulinic acid on a molar basis” value with human keratinocytes (human keratinocytes) is roughly 10 fold. Moreover, the “More active against proliferating cells (30% vs 80% confluency)” value with human keratinocytes (keratinocytes, 2.5 μM) is reported as roughly 6 fold. Besides, the “Mean survival, percentage of control-treated cells” value in the test with human keratinocytes (keratinocytes, 30% confluency, 2.5 μM) was determined as 17%; in the test with human keratinocytes (keratinocytes, 80% confluency, 2.5 μM), 92.7%; in test [2] (30% confluency), 18.3%; in test [2] (80% confluency), 90.3%. Moreover, the “Efficacy on a molar basis in promoting cell death compared to betulinic acid” value in test [1] was “up to 5 fold”. For the same compound, in test [2] (endothelial cells), the “More effective at 30% confluency compared to 80% confluency” value is roughly 5 fold.

What is called IC50 is the point on the concentration scale where inhibition reaches its midpoint. A higher IC50 goes with weaker potency.
